Measured values published in patent US5955500A (G. D. Searle & Co., priority 1997, dated 1999).
“And” between values parts separate entries of the source, which are not always exact repeats. Identical values can stand only once. Counter-ions that a name gives are not always drawn. Like-named read-outs stand apart in the source and are kept apart here.

Legend:
canine heart = conditions: for AH time / Heart rate / Mean arterial pressure: mean ± SE, listed as 50/50S
[1] = pH 5, individual replicates; listed as 50, hydrochloride
[2] = test system: supraventricular tachycardia; conditions: intravenous; cited from earlier work
[3] = 0.1 mg/kg i.v., 0 min, hydrochloride
[4] = 0.1 mg/kg i.v., 1 min, hydrochloride
[5] = 0.1 mg/kg i.v., 2 min, hydrochloride
[6] = 0.1 mg/kg i.v., 3 min, hydrochloride
[7] = 0.1 mg/kg i.v., 4 min, hydrochloride
[8] = 0.1 mg/kg i.v., 5 min, hydrochloride
[9] = 0.2 mg/kg i.v., 0 min, hydrochloride
[10] = 0.2 mg/kg i.v., 1 min, hydrochloride
[11] = 0.2 mg/kg i.v., 2 min, hydrochloride
[12] = 0.2 mg/kg i.v., 3 min, hydrochloride
[13] = 0.2 mg/kg i.v., 4 min, hydrochloride
[14] = 0.2 mg/kg i.v., 5 min, hydrochloride
[15] = 0.4 mg/kg i.v., 0 min, hydrochloride
[16] = 0.4 mg/kg i.v., 1 min, hydrochloride
[17] = 0.4 mg/kg i.v., 2 min, hydrochloride
[18] = 0.4 mg/kg i.v., 3 min, hydrochloride
[19] = 0.4 mg/kg i.v., 4 min, hydrochloride
[20] = 0.4 mg/kg i.v., 5 min, hydrochloride

## COc1ccc(CCN(C)CCCC(C#N)(c2ccc(OC)c(OC)c2)C(C)C)cc1OC (racemic) [racemic verapamil, benzeneacetonitrile, α-[3-[[2-(3,4-dimethoxyphenyl)ethyl]methylamino]propyl]-3,4-dimethoxy-α-(1-methylethyl) hydrochloride, reference compound]
Canine heart; [3]
  AH time: 97 ± 16 ms
  Heart rate: 143 ± 11 beats per min
  Mean arterial pressure: 92 ± 4 mmHg
Canine heart; [4]
  AH time: 107 ± 12 ms
  Heart rate: 135 ± 6 beats per min
  Mean arterial pressure: 97 ± 4 mmHg
Canine heart; [5]
  AH time: 105 ± 9 ms
  Heart rate: 122 ± 7 beats per min
  Mean arterial pressure: 101 ± 5 mmHg
Canine heart; [6]
  AH time: 106 ± 8 ms
  Heart rate: 118 ± 6 beats per min
  Mean arterial pressure: 102 ± 5 mmHg
Canine heart; [7]
  AH time: 104 ± 7 ms
  Heart rate: 119 ± 7 beats per min
  Mean arterial pressure: 100 ± 4 mmHg
Canine heart; [8]
  AH time: 104 ± 6 ms
  Heart rate: 125 ± 8 beats per min
  Mean arterial pressure: 104 ± 4 mmHg
Canine heart; [9]
  AH time: 96 ± 8 ms
  Heart rate: 169 ± 4 beats per min
  Mean arterial pressure: 88 ± 5 mmHg
Canine heart; [10]
  AH time: 117 ± 11 ms
  Heart rate: 164 ± 8 beats per min
  Mean arterial pressure: 90 ± 3 mmHg
Canine heart; [11]
  AH time: 112 ± 7 ms
  Heart rate: 149 ± 10 beats per min
  Mean arterial pressure: 101 ± 4 mmHg
Canine heart; [12]
  AH time: 118 ± 9 ms
  Heart rate: 149 ± 10 beats per min
  Mean arterial pressure: 101 ± 6 mmHg
Canine heart; [13]
  AH time: 117 ± 8 ms
  Heart rate: 147 ± 12 beats per min
  Mean arterial pressure: 101 ± 4 mmHg
Canine heart; [14]
  AH time: 124 ± 8 ms
  Heart rate: 147 ± 13 beats per min
  Mean arterial pressure: 100 ± 5 mmHg
Canine heart; 0.2 mg/kg i.v., listed as 50R/50S-verapamil, hydrochloride
  Occurrence of AV conduction block: 3 animals
Canine heart; [15]
  AH time: 101 ± 10 ms
  Heart rate: 180 ± 11 beats per min
  Mean arterial pressure: 86 ± 8 mmHg
Canine heart; [16]
  AH time: 112 ± 10 ms
  Heart rate: 171 ± 7 beats per min
  Mean arterial pressure: 87 ± 8 mmHg
Canine heart; [17]
  AH time: 116 ± 5 ms
  Heart rate: 162 ± 3 beats per min
  Mean arterial pressure: 92 ± 7 mmHg
Canine heart; [18]
  AH time: 117 ± 7 ms
  Heart rate: 163 ± 5 beats per min
  Mean arterial pressure: 97 ± 6 mmHg
Canine heart; [19]
  AH time: 119 ± 8 ms
  Heart rate: 162 ± 4 beats per min
  Mean arterial pressure: 95 ± 8 mmHg
Canine heart; [20]
  AH time: 113 ± 5 ms
  Heart rate: 161 ± 9 beats per min
  Mean arterial pressure: 98 ± 6 mmHg
Canine heart; 0.4 mg/kg i.v., listed as 50R/50S-verapamil, hydrochloride
  Occurrence of second and third degree AV conduction block: 7 animals
Canine heart; dog, in vivo
  Peak effect on HR, in words: drastic increase in HR
  QTc interval compared with 100R-verapamil, in words: significantly increased compared with 100R-verapamil
Canine heart; increase in HR against drop in MAP
  Interaction between MAP and HR (multiple linear regression), in words: greatest rate of increase in HR as opposed to a drop in MAP
Canine heart; paced at 200 beats/min
  Sinus node recovery time (SNRT), significance: significant decrease
[1]
  Concentration in octanol: 6.02 µg/mL and 6.36 µg/mL and 5.83 µg/mL
  Concentration in water: 5.05 µg/mL and 4.80 µg/mL and 4.75 µg/mL
[2]
  Rapid and reliable control of supraventricular tachycardia, in words: work well
